ChEMBL document CHEMBL2390823, “Aryl uracil inhibitors of hepatitis C virus NS5B polymerase: synthesis and characterization of analogs with a fused 5,6-bicyclic ring motif” (Bioorg Med Chem Lett, 2013)
pEC50, pIC50: −log10 of the molar value.

Key:
[1] = Inhibition of Hepatitis C virus genotype 1a NS5B polymerase; set-up: species or system Hepatitis C virus subtype 1a
Hepatitis C virus [2] = experiment: Antiviral activity against Hepatitis C virus genotype 1a infected in human HuH7 cells in presence of 5% fetal calf serum; type: functional, organism-based, Hepacivirus hominis; details: subtype 1a, Huh-7
Hepatitis C virus [3] = experiment: Antiviral activity against Hepatitis C virus genotype 1b infected in human HuH7 cells in presence of 40% human plasma; type: functional, organism-based, Hepacivirus hominis; details: Huh-7, Plasma
Hepatitis C virus [4] = experiment: Antiviral activity against Hepatitis C virus genotype 1b infected in human HuH7 cells in presence of 5% fetal calf serum; type: functional, organism-based, Hepacivirus hominis; details: Huh-7
Hepatitis C virus [5] = experiment: Inhibition of Hepatitis C virus genotype 1b NS5B polymerase; set-up: species or system Hepatitis C virus subtype 1b
[6] = Effective permeability of the compound by PAMPA; type: ADME; details: read-out: Peff
[7] = (§1) Half life in rat at 5 mg/kg, po; type: ADME, organism-based; set-up: dose 5 mg/kg, route oral; details: in vivo
[8] = (§2) Oral bioavailability in rat at 5 mg/kg; type: ADME, organism-based; details: in vivo
[9] = (§3) AUC (0 to infinity) in rat at 5 mg/kg, po; type: ADME, organism-based, Plasma; set-up: dose 5 mg/kg, route oral, time infinity; details: plasma
[10] = Half life in rat at 5 mg/kg, iv; type: ADME, organism-based; set-up: dose 5 mg/kg, route intravenous; details: in vivo
[11] = (§4) Tmax in rat at 5 mg/kg, po; type: ADME, organism-based; set-up: dose 5 mg/kg, route oral; details: in vivo
[12] = (§5) Cmax in rat at 5 mg/kg, po; type: ADME, organism-based; set-up: dose 5 mg/kg, route oral; details: in vivo
[13] = (§6) Plasma clearance in rat at 5 mg/kg, iv; type: ADME, organism-based; set-up: dose 5 mg/kg, route intravenous; details: plasma
Rattus norvegicus [14] = experiment: as §1; type: ADME, organism-based; set-up: dose 5 mg/kg, route oral; details: in vivo
Rattus norvegicus [15] = experiment: as §2; type: ADME, organism-based; details: in vivo
Rattus norvegicus [16] = experiment: as §3; type: ADME, organism-based, Plasma; set-up: dose 5 mg/kg, route oral, time infinity; details: in vivo
Rattus norvegicus [17] = experiment: as §4; type: ADME, organism-based; set-up: dose 5 mg/kg, route oral; details: in vivo
Rattus norvegicus [18] = experiment: as §5; type: ADME, organism-based; set-up: dose 5 mg/kg, route oral; details: in vivo
Rattus norvegicus [19] = experiment: as §6; type: ADME, organism-based; set-up: dose 5 mg/kg, route intravenous; details: in vivo

pIC50 [1]	pEC50 (Hepatitis C virus [2])	pEC50 (Hepatitis C virus [3])	pEC50 (Hepatitis C virus [4])	pIC50 (Hepatitis C virus [5])	Papp [6]	half-life [7]	bioavailability [8]	AUC(0-inf) [9]	half-life [10]	Tmax [11]	Cmax [12]	clearance [13]	t1/2 (Rattus norvegicus [14])	F (Rattus norvegicus [15])	AUC (Rattus norvegicus [16])	Tmax (Rattus norvegicus [17])	Cmax (Rattus norvegicus [18])	CL (Rattus norvegicus [19])	Compound
8.05	6.62	6.59	7.66	7.68															COc1c(-c2ccc3c(CNS(C)(=O)=O)coc3c2)cc(-n2ccc(=O)[nH]c2=O)cc1C(C)(C)C
7.72	< 6.00		< 6.00	7.35	14 nm/s														COc1c(-c2ccc3nc(NS(C)(=O)=O)sc3c2)cc(-n2ccc(=O)[nH]c2=O)cc1C(C)(C)C
6.74	< 6.00	< 5.00	< 6.00	6.61	8.1 nm/s														COc1c(-c2ccc3cc(CNS(C)(=O)=O)sc3c2)cc(-n2ccc(=O)[nH]c2=O)cc1C(C)(C)C
8.15	8.40	7.30	7.00	7.70															COc1c(-c2ccc3c(c2)CC=C3CN(C)S(C)(=O)=O)cc(-n2ccc(=O)[nH]c2=O)cc1C(C)(C)C
8.30	7.57	7.34	8.52	8.00	8.1 nm/s	3.2 h	41%	9.3 µg·h/mL	3.6 h	0.5 h	1.41 µg/mL	0.27 L/h/kg							COc1c(-c2ccc3c(CNS(C)(=O)=O)csc3c2)cc(-n2ccc(=O)[nH]c2=O)cc1C(C)(C)C
8.10	7.70	7.89	8.52	7.74	89.3 nm/s	2.3 h	119%	13.5 µg·h/mL	1.8 h	0.33 h	2.36 µg/mL	0.45 L/h/kg							COc1c(-c2ccc3c(c2)CCC3CNS(C)(=O)=O)cc(-n2ccc(=O)[nH]c2=O)cc1C(C)(C)C (centres undefined)
7.80	6.32	6.25	7.05	7.39		2.4 h	62%	5.1 µg·h/mL	2.3 h	0.25 h	1.01 µg/mL	0.61 L/h/kg							COc1c(-c2ccc3c(c2)CCC3(C)CNS(C)(=O)=O)cc(-n2ccc(=O)[nH]c2=O)cc1C(C)(C)C (centres undefined)
7.48	6.85	6.02	< 7.00	7.33	2.4 nm/s														COc1c(-c2ccc3c(c2)CCC3NNS(C)(=O)=O)cc(-n2ccc(=O)[nH]c2=O)cc1C(C)(C)C (centres undefined)
7.96	7.29	7.74	7.57	7.66	2.2 nm/s				1.1 h				1 h	1.4%	0.5 µg·h/mL	0.33 h	0.03 µg/mL	1.53 L/h/kg	COc1c(C(=O)Nc2ccc(NS(C)(=O)=O)cc2)cc(N2CCC(=O)NC2=O)cc1C(C)(C)C
6.73	6.00	< 6.00	< 6.00	6.67	40.6 nm/s														COc1c(-c2ccc3c(c2)CC=C3C(C)(C)NS(C)(=O)=O)cc(-n2ccc(=O)[nH]c2=O)cc1C(C)(C)C
8.22	7.85	7.66	8.52	7.96	54.3 nm/s	3 h	86%	7.2 µg·h/mL	1.9 h	6.17 h	0.66 µg/mL	0.77 L/h/kg							COc1c(-c2ccc3c(c2)CC=C3CNS(C)(=O)=O)cc(-n2ccc(=O)[nH]c2=O)cc1C(C)(C)C
8.52	8.70	9.00	9.00	8.52	4.7 nm/s	3 h	18%	0.88 µg·h/mL	2.8 h	2.5 h	0.12 µg/mL	1.19 L/h/kg							COc1c(-c2ccc3c(c2)CC/C3=N\NS(C)(=O)=O)cc(-n2ccc(=O)[nH]c2=O)cc1C(C)(C)C
6.27	< 6.00		< 6.00	6.29															COc1c(-c2ccc3c(CNS(C)(=O)=O)noc3c2)cc(-n2ccc(=O)[nH]c2=O)cc1C(C)(C)C
